In patent US6130220A, “Sulfamide-metalloprotease inhibitors” (Syntex (USA) Inc., priority 1999, dated 2000):
pIC50: −log10 of the molar value.

Experiments:
[1] = target: Collagenase-III; experiment: MMP enzymatic assay, hydrolysis of MCA-Pro-Leu-Gly-Leu-DPA-Ala-Arg-NH2, Collagenase-III; format: biochemical; conditions: 37° C., pH 7.5, 2.5% DMSO
Description: The propeptide and catalytic domain portion of human collagenase-3 was expressed in E. Coli as an N-terminal fusion protein with ubiquitin. After purification, the catalytic domain was released by treatment with 1 mM APMA for 1 hour at 37° C., and then purified by zinc chelate chromatography.
Rat collagenase-3 was purified in active form from the culture media of uterine smooth muscle cells as described in Roswit, W. T. et al., Arch. Biochem. Biophys., 225, 285-295 (1983).
The matrix metalloprotease inhibitory activity of compounds of this invention in vitro was determined based on the hydrolysis of MCA-Pro-Leu-Gly-Leu-DPA-Ala-Arg-NH2 (Bachem, Inc.) at 37° C. as described in Knight, C. G., et al., FEBS Lett., 296, 263-266 (1992).
The matrix metalloprotease enzyme was diluted with assay buffer (50 mM Tricine pH 7.5, 200 mM NaCl, 10 mM CaCl2, and 0.005% Brij-35) containing 10 μmole of above substrate dissolved in DMSO. Compounds of the invention dissolved in DMSO or only DMSO (control samples) were added such that the final DMSO concentration in all assays was 2.5%. The fluorescence changes were monitored with a Perkin-Elmer LS-50B flourimeter using an excitation wavelength of 328 nm and an emission wavelength of 393 nm.

[2] = system: TNF-α release from Human Monomac 6 cells; experiment: Inhibition of TNF release in vitro, Monomac 6 cells, LPS/PMA; format: cell-based; conditions: 2 h; for inhibition at 10 µM: MONO-MAC-6, 10 μM, read-out: TNF-α % inhibition, Conc. 10 μM; for inhibition at 2 µM: MONO-MAC-6, 2 μM, read-out: TNF-α % inhibition, Conc. 2 μM
Description: The activity of compounds of this invention in inhibiting the TNF release was determined, using the a minor modification of the method described in Pradines-Figueres, A. and Raetz, C. R. H., J. Biol. Chem., 267 (32), 23261, (1992).
Human Monomac 6 cells (Ziegler-Heitbrock, H. W. L., et al., Int. J. Cancer, 41, 456, (1988)) were cultured at 37° C. in RPMI 1640 medium containing 10% fetal calf serum to a density of 1×10^5 cells/ml. 0.23 ml of these cells were placed in each well of a tissue culture plate and the cells were incubated for 15 min. The test compounds were dissolved in above mentioned medium and added and the incubation was continued for an additional 15 min. 10 μl of an lipopolysaccharide/phorbol-12-myristate-13-acetate (LPS/PMA) mixture was added such that the final concentration of lipopolysaccharide was 10 ng/ml and the final concentration of phorbol-12-myristate-13-acetate was 30 ng/ml. The cells were incubated for 2 h after which the plate was centrifuged and the medium was removed and analyzed for TNF content. The analysis was performed using a TNF Quantikine® Inmunoassay (R & D Systems, Minneapolis, Minn. 55413) by following the manufacturer's protocol.
The TNF-α inhibitory activity of test materials, i.e., the measure of the TNF-α content in the test group relative to the vehicle treated group (control group) was: […]

[3] = system: TNF-α; experiment: Inhibition of LPS induced TNF-α production in mice in vivo; conditions: s.c. compound, LPS 50 μg/mouse i.p. 1 h later, blood after 1.5 h
Description: The activity of compounds of this invention in inhibiting the TNF-α release was determined, using a minor modification of the methods described in Zanetti, G.; Heumann, D., et. al., "Cytokine production after intravenous or peritoneal Gram-negative bacterial challenge in mice" J. Immunol., 148, 1890, (1992) and Sekut, L., Menius, J. A., et. al., "Evaluation if the significance of elevated levels of systemic and localized tumor necrosis factor in different animal models of inflammation" J. Lab. Clin. Med., 124, 813, (1994).
Female Balbic mice were anesthetized and injected subcutaneously with the test compounds dissolved in CMC vehicle or hydroxypropylmethyl cellulose based vehicle. Control animals received only the vehicle. After 1 h, LPS (50 μg/mouse, Sigma #13129, Sigma Chemical Co., St. Louis, Mo.) was injected intraperitoneally. After 1.5 h, blood was collected from the retro-rbital plexus region of the animals in a miicrotainer serum separator tube (Becton Dickinson, Cat. No. #5960, Becton Dickinson & Co., Franklin Lakes, N.J.). The sera was separated and the amount of TNF-α was determined using the EM-TNFA® kit (Endogen, Woburn, Mass.) by following the manufacturer's protocol.

| SMILES | pIC50 [1] | inhibition at 10 µM [2] | inhibition at 2 µM [2] | TNF-α % inhibition [3] |
| --- | --- | --- | --- | --- |
| O=C(NO)C1(NS(=O)(=O)N2CCN(c3ccc(Cl)cc3)CC2)CCCCC1 [compound 345, N-hydroxy-1-{[4-(4-chlorophenyl)piperazine-1-sulfonyl]amino}-cyclohexane-1-carboxamide] | 8.18 | – | – | – |
| O=C(NO)C1CCCCN1S(=O)(=O)N1CCC(c2c[nH]c3cc(Cl)ccc23)CC1 (racemic) [compound 256, N-hydroxy-1-[4-(6-chloroindol-3-yl)piperidine-1-sulfonyl]piperidine-2-(RS)-carboxamide] | 7.48 | 79% | – | – |
| O=C(NO)C1CCCCN1S(=O)(=O)N1CCC(c2c[nH]c3ccc(F)cc23)CC1 (racemic) [compound 254, N-hydroxy-1-[4-(5-fluoroindol-3-yl)piperidine-1-sulfonyl]piperidine-2-(RS)-carboxamide] | 6.74 | 94% | – | – |
| O=C(NO)[C@H]1CCCCN1S(=O)(=O)N1CCc2c([nH]c3ccccc23)C1 [compound 314, N-hydroxy-1-[1,2,3,4-tetrahydro-beta-carboline-2-sulfonyl]piperidine-2-(R)-carboxamide] | – | – | 72% | – |
| Cc1cc(C2=CCN(S(=O)(=O)N3CCN(C(=O)OC(C)(C)C)CC3C(=O)NO)CC2)ccc1F (racemic) [compound 384] | – | 96% | – | – |
| O=C(NO)C(NS(=O)(=O)N1CC=C(c2ccc(Cl)cc2)CC1)c1ccc(F)cc1 (centres unmarked) [compound 409] | – | 86% | – | – |
| CN(C)C(=O)N1CCN(S(=O)(=O)N2CCC(C(=O)c3ccc(Cl)cc3)CC2)[C@@H](C(=O)NO)C1 [compound 298, N-hydroxy-1-[4-(4-chlorobenzoyl)piperidine-1-sulfonyl]-4-(N,N-dimethylaminocarbonyl)piperazine-2-(R)-carboxamide] | 9.70 | – | 70% | – |
| O=C(NO)C1CCCCN1S(=O)(=O)N1CCCCC1 (racemic) [compound 233] | – | – | – | 46% |
| Cc1cc(C2=CCN(S(=O)(=O)N3CCN(C(=O)OCc4ccccc4)CC3C(=O)NO)CC2)ccc1F (racemic) [compound 381, N-hydroxy-4-benzyloxycarbonyl-1-[4-(4-fluoro-3-methylphenyl)-1,2,3,6-tetrahydropyridine-1-sulfonyl]piperazine-2-(RS)-carboxamide] | – | – | 10% | – |
| CN(C)S(=O)(=O)N1CCN(S(=O)(=O)N2CCC(C(=O)c3ccc(Cl)cc3)CC2)[C@@H](C(=O)NO)C1 [compound 315, N-hydroxy-1-[4-(4-chlorobenzoyl)piperidine-1-sulfonyl]-4-(N,N-dimethylaminosulfonyl)piperazine-2-(R)-carboxamide] | 10.00 | – | 86% | – |
| CN(Cc1ccccc1)S(=O)(=O)N(CC(=O)O)Cc1ccccc1 [compound 430, 2-[benzyl-(benzylmethylaminosulfonyl)amino]acetic acid] | 6.05 | – | – | – |
| C[C@@H](NS(=O)(=O)N1CCN(C(=O)Nc2ccc(Cl)cc2)CC1)C(=O)NO [compound 177, N-hydroxy-2-(R)-{[4-(4-chlorophenylaminocarbonyl)piperazine-1-sulfonyl]amino}propionamide] | 8.80 | < 15% | – | – |
| N#Cc1ccc2[nH]cc(C3CCN(S(=O)(=O)N4CCN(C(=O)N5CCOCC5)C[C@@H]4C(=O)NO)CC3)c2c1 [compound 321, N-hydroxy-4-(morpholin-4-ylcarbonyl)-1-[4-(5-cyanoindol-3-yl)piperdine-1-sulfonyl]piperazine-2-(R)-carboxamide] | – | – | 93% | 50% |
| O=C(NO)[C@H](CSCc1ccccc1)NS(=O)(=O)N1CCN(c2ccc(Cl)cn2)CC1 [compound 102] | 9.04 | 56% | – | – |
| O=C(NO)C1CCCCN1S(=O)(=O)N1CCN(c2ccc(Cl)cc2)CC1 (racemic) [compound 234, N-hydroxy-1-[4-(4-chlorophenyl)piperazine-1-sulfonyl]piperidine-2-(RS)-carboxamide] | – | – | – | 46% |
| CN(Cc1ccccc1)S(=O)(=O)N(CC(=O)NO)Cc1ccccc1 [compound 355] | 7.25 | < 15% | – | – |

| SMILES | pIC50 [1] | inhibition at 10 µM [2] | inhibition at 2 µM [2] | TNF-α % inhibition [3] |
| --- | --- | --- | --- | --- |
| O=C(NO)C1CCCCN1S(=O)(=O)N1CC=C(c2ccc(Cl)cc2)CC1 (racemic) [compound 375, N-hydroxy-1-[4-(4-chlorophenyl)-1,2,3,6-tetrahydropyridine-1-sulfonyl]piperidine-2-(RS)-carboxamide] | – | – | 85% | – |
| O=C(NO)[C@H]1CCCCN1S(=O)(=O)N1CCCC1 [compound 232, N-hydroxy-1-(pyrrolidine-1-sulfonyl)piperidine-2-(R)-carboxamide] | – | – | – | 73% |
| O=C(NO)C1CCCCN1S(=O)(=O)N1CCC(c2noc3cc(F)ccc23)CC1 (racemic) [compound 286, N-hydroxy-1-[4-(6-fluorobenzisoxazol-3-yl)piperidine-1-sulfonyl]piperidine-2-(RS)-carboxamide] | 10.20 | – | – | – |
| COCCN(CC(=O)NO)S(=O)(=O)N1CCN(c2ccc(Cl)cc2)CC1 [compound 16] | 7.68 | < 15% | – | – |
| C[C@@H](NS(=O)(=O)N1CC=C(c2ccc(Cl)cc2)CC1)C(=O)NO [compound 401] | 9.72 | 97% | – | – |
| CN(C)C(=O)N1CCN(S(=O)(=O)N2CCC(c3ccc(F)cc3)CC2)[C@@H](C(=O)NO)C1 [compound 313, N-hydroxy-4-(N,N-dimethylaminocarbonyl)-1-[4-(4-fluorophenyl)piperidine-1-sulfonyl]piperazine-2-(R)-carboxamide] | – | – | 73% | – |
| CC(C)[C@H](C(=O)NO)N(Cc1ccccc1)S(=O)(=O)N1CCCCC1 [compound 1, N-hydroxy-2-(R)-[benzyl-(piperidine-1-sulfonyl)amino]-3-methylbutyramide] | 6.18 | – | – | – |
| CC(=O)N1CCN(S(=O)(=O)N2CCC(C(=O)c3ccc(Cl)cc3)CC2)C(C(=O)NO)C1 (racemic) [compound 255, N-hydroxy-4-acetyl-1-[4-(4-chlorobenzoyl)piperidine-1-sulfonyl]piperazine-2-(RS)-carboxamide] | 9.72 | 97% | – | – |
| O=C(NO)C1(NS(=O)(=O)N2CCN(c3ccc(Cl)cn3)CC2)CCCCC1 [compound 342] | 8.68 | – | – | – |
| CC(C)[C@@H](NS(=O)(=O)N1CCC(C(=O)c2ccc(Cl)cc2)CC1)C(=O)NO [compound 134] | – | – | – | 42% |
| C[C@H](C(=O)O)N(Cc1ccccc1)S(=O)(=O)NCc1ccccc1 [compound 431] | 5.19 | – | – | – |
| C[C@@H](NS(=O)(=O)N1CCC(c2cccc3ccccc23)CC1)C(=O)NO [compound 216] | – | – | – | 41% |
| CC(C)[C@H](C(=O)NO)N(CCCc1cccnc1)S(=O)(=O)N1CCC(Oc2ccc(Br)cc2)CC1 [compound 105] | 9.23 | 20% | – | – |
| CC(C)[C@@H](NS(=O)(=O)N1CCC(c2nc(-c3ccccc3)c[nH]2)CC1)C(=O)NO [compound 133, N-hydroxy-2-(R)-{[4-(4-phenylirnidazol-2-yl)piperidine-1-sulfonyl]amino}-3-methylbutyramide] | 7.74 | 32% | – | – |
| C[C@@H](NS(=O)(=O)N1CCN(c2ccc(Cl)cc2)CC1)C(=O)O [compound 414, 2-(R)-{[4-(4-chlorophenyl)piperazino-1-sulfonyl]amino}propionic acid] | 5.47 | – | – | – |
